Source: ChEMBL document CHEMBL2073999, “Vectorial transport by double-transfected cells expressing the human uptake transporter SLC21A8 and the apical export pump ABCC2” (Mol Pharmacol, 2001)

The compounds below were run on MDCK-II (assay: TP_TRANSPORTER: transepithelial transport in OATP1B3/MRP2 double transfectant (MDCKII)).
Format: functional, cell-based
For `C[C@]12CC[C@H](OS(=O)(=O)O)CC1=CC[C@@H]1[C@@H]2CC[C@]2(C)C(=O)CC[C@@H]12`, the Activity was “substrate []”. `Cc1ccc(N(CC(=O)O)CC(=O)O)c(OCCOc2cc(-c3c4cc(Cl)c(=O)cc-4oc4cc(O)c(Cl)cc34)ccc2N(CC(=O)O)CC(=O)O)c1` was tested, and the Activity was “substrate []”. In the case of `C[C@]12CC[C@@H]3c4ccc(O)cc4CC[C@H]3[C@@H]1CC[C@@H]2O[C@@H]1O[C@H](C(=O)O)[C@@H](O)[C@H](O)[C@H]1O`, the Activity is reported as “substrate []”. `CCCCC/C=C\C\C=C/C=C/C=C/[C@@H](SC[C@@H](NC(=O)CC[C@H](N)C(=O)O)C(=O)NCC(=O)O)[C@@H](O)CCCC(=O)O` was tested, and the Activity was “substrate []”. With `CO[C@H]1/C=C/O[C@@]2(C)Oc3c(C)c(O)c4c(O)c(c(/C=N/N5CCN(C)CC5)c(O)c4c3C2=O)NC(=O)/C(C)=C\C=C\[C@H](C)[C@H](O)[C@@H](C)[C@@H](O)[C@@H](C)[C@H](OC(C)=O)[C@@H]1C` the Activity was “substrate []”. For `O=C1OC(c2ccc(O)c(S(=O)(=O)O)c2)(c2ccc(O)c(S(=O)(=O)O)c2)c2c(Br)c(Br)c(Br)c(Br)c21`, the Activity was “substrate []”.
